From PubChem BioAssay AID206 (DTP/NCI, 2004)
Values joined by “and” are separate entries in the source; they are usually repeats but may differ in a detail not shown here. Identical values can stand only once. Inconclusive results are not listed.

System: nude mice, HT29 intrarenal xenograft, tumor weight T/C
Assay: NCI In Vivo Anticancer Drug Screen. Data for tumor model HT29;CX-1 Human Adenocarcinoma (MER+) (intrarenal inoculation) in NU/NU Swiss (nude) mice
Details: endpoint: mean tumor weight change, higher = larger tumour
How it was run: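 Tumor-bearing mice received test compound or vehicle, and tumor size or survival was recorded. Values are the treated-group measurement divided by the vehicle-treated control measurement.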

[1] = dose: 200.0 mg/kg/injection, schedule: Q04DX004 (sc), vehicle: saline with Tween-80
[2] = dose: 800.0 mg/kg/injection, schedule: Q04DX004 (sc), vehicle: saline with Tween-80
[3] = dose: 100.0 mg/kg/injection, schedule: Q01DX010 (sc), vehicle: saline with Tween-80
[4] = dose: 200.0 mg/kg/injection, schedule: Q01DX010 (sc), vehicle: saline with Tween-80
[5] = dose: 400.0 mg/kg/injection, schedule: Q01DX010 (sc), vehicle: saline with Tween-80
[6] = dose: 800.0 mg/kg/injection, schedule: Q01DX010 (sc), vehicle: saline with Tween-80
[7] = dose: 150.0 mg/kg/injection, schedule: Q04DX004 (sc), vehicle: saline with Tween-80
[8] = dose: 1200.0 mg/kg/injection, schedule: Q04DX004 (sc), vehicle: saline with Tween-80
[9] = dose: 2400.0 mg/kg/injection, schedule: Q04DX004 (sc), vehicle: saline with Tween-80
[10] = dose: 50.0 mg/kg/injection, schedule: Q04DX004 (sc), vehicle: saline with Tween-80
[11] = dose: 100.0 mg/kg/injection, schedule: Q04DX004 (sc), vehicle: saline with Tween-80
[12] = dose: 400.0 mg/kg/injection, schedule: Q04DX004 (sc), vehicle: saline with Tween-80

In the case of COc1cccc2c1C(=O)c1c(O)c3c(c(O)c1C2=O)CC(O)(/C(C)=N/NC(=O)CCC(=O)N/N=C(\C)C1(O)Cc2c(O)c4c(c(O)c2C(OC2CC(N)C(O)C(C)O2)C1)C(=O)c1c(OC)cccc1C4=O)CC3OC1CC(N)C(O)C(C)O1 (stereo not given), the T/C (dose: 6.25 mg/kg/injection, schedule: Q01DX010 (sc), vehicle: water) is reported as 114 % of control, the T/C (dose: 12.5 mg/kg/injection, schedule: Q01DX010 (sc), vehicle: water) is reported as 47 % of control and the T/C (dose: 15.63 mg/kg/injection, schedule: Q04DX004 (sc), vehicle: water) is reported as 64 % of control. For the same compound, the T/C (dose: 25.0 mg/kg/injection, schedule: Q01DX010 (sc), vehicle: water) was 46 % of control, the T/C (dose: 31.25 mg/kg/injection, schedule: Q04DX004 (sc), vehicle: water) was 3 % of control and the T/C (dose: 62.5 mg/kg/injection, schedule: Q04DX004 (sc), vehicle: water) was 120 % of control.
With Cc1ccc(S(=O)(=O)NC(=O)OC23COCN2COC3)cc1 the T/C [1] was 84 % of control, the T/C [2] was 153 % of control and the T/C (dose: 1600.0 mg/kg/injection, schedule: Q04DX004 (sc), vehicle: saline with Tween-80) was 121 % of control.
With COc1ccc(OC)c(/C=C/c2ccnc3ccccc23)c1 the T/C [3] was 92 % of control, the T/C [4] was 61 % of control and the T/C [5] was 91 % of control. The T/C [6] was 113 % of control.
For C=C1C(=O)C23[C@H](O)C1CC[C@H]2[C@]12COC3(O)[C@@H](O)[C@@H]1C(C)(C)CC[C@@H]2O, the T/C (dose: 25.0 mg/kg/injection, schedule: Q04DX004 (sc), vehicle: Klucel (hydroxypropylcellulose) (HPC)) was 80 % of control.
For CCC(=O)N(C)[C@@H](C)C(=O)O[C@H]1CC(=O)N(C)c2cc(cc(OC)c2Cl)C/C(C)=C/C=C[C@@H](OC)[C@@]2(O)C[C@H](OC(=O)N2)[C@@H](C)[C@@H]2O[C@@]12C, the T/C (dose: 0.03 mg/kg/injection, schedule: Q01DX010 (sc), vehicle: saline + alcohol) was 171 % of control, the T/C (dose: 0.06 mg/kg/injection, schedule: Q01DX010 (sc), vehicle: saline + alcohol) was 65 % of control and the T/C (dose: 0.07 mg/kg/injection, schedule: Q01DX010 (sc), vehicle: saline + alcohol) was 120 % of control. The T/C (dose: 0.12 mg/kg/injection, schedule: Q01DX010 (sc), vehicle: saline + alcohol) was 34 % of control, the T/C (dose: 0.13 mg/kg/injection, schedule: Q01DX010 (sc), vehicle: saline + alcohol) was 69 % of control and the T/C (dose: 0.25 mg/kg/injection, schedule: Q01DX010 (sc), vehicle: saline + alcohol) was 2 % of control and 18 % of control.
NC(=O)c1csc(C2OC(CO)C(O)C2O)n1 (stereo not given) was tested, and the T/C (dose: 125.0 mg/kg/injection, schedule: Q04DX004 (sc), vehicle: water) was 119 % of control.
With C=CCNc1nc2c(s1)CCc1cc(OC)c(OC)cc1-2 the T/C [7] was 38 % of control, the T/C (dose: 300.0 mg/kg/injection, schedule: Q04DX004 (sc), vehicle: saline with Tween-80) was 114 % of control and the T/C (dose: 600.0 mg/kg/injection, schedule: Q04DX004 (sc), vehicle: saline with Tween-80) was 113 % of control. For the same compound, the T/C [8] was 80 % of control.
In the case of Cc1c(N)nc(C(CC(N)=O)NCC(N)C(N)=O)nc1C(=O)NC(C(=O)NC(C)C(O)C(C)C(=O)NC(C(=O)NCCc1nc(-c2nc(C(=O)NCCCNCCCc3ccccn3)cs2)cs1)C(C)O)C(OC1OC(CO)C(O)C(O)C1OC1OC(CO)C(O)C(OC(N)=O)C1O)c1cnc[nH]1 (stereo not given), the T/C (dose: 9.0 mg/kg/injection, schedule: Q04DX004 (sc), vehicle: water) is reported as 164 % of control, the T/C (dose: 18.0 mg/kg/injection, schedule: Q04DX004 (sc), vehicle: water) is reported as 120 % of control and the T/C (dose: 36.0 mg/kg/injection, schedule: Q04DX004 (sc), vehicle: water) is reported as 90 % of control.
COc1cccc(C2NC(=O)c3c(n[nH]c3N)S2)c1O (stereo not given) was tested, and the T/C [8] was 53 % of control and the T/C [9] was 117 % of control.
In the case of CCOC(=O)C(N)CSC(=O)NC (stereo not given), the T/C (dose: 100.0 mg/kg/injection, schedule: Q04DX004 (sc), vehicle: saline) is reported as 92 % of control, the T/C (dose: 200.0 mg/kg/injection, schedule: Q04DX004 (sc), vehicle: saline) is reported as 96 % of control and the T/C (dose: 400.0 mg/kg/injection, schedule: Q04DX004 (sc), vehicle: saline) is reported as 103 % of control. For the same compound, the T/C (dose: 800.0 mg/kg/injection, schedule: Q04DX004 (sc), vehicle: saline) was 62 % of control.
With O=S(=O)(CCl)OCCCl the T/C [10] was 163 % of control and the T/C [11] was 105 % of control.
In the case of CCOC(OCC)C(=O)OCC(=O)[C@]1(O)Cc2c(O)c3c(c(O)c2[C@@H](OC2CC(N)C(O)C(C)O2)C1)C(=O)c1c(OC)cccc1C3=O (stereo not given in full), the T/C (dose: 20.0 mg/kg/injection, schedule: Q04DX004 (sc), vehicle: water) is reported as 33 % of control.
In the case of C[CH2][Ge]([CH2]C)[CH2]C.C[CH2][Ge]([CH2]C)[CH2]C.C[CH2][Ge]([CH2]C)[O][Ge]([CH2]C)[CH2]C, the T/C [7] is reported as 112 % of control.
In the case of O=C1C2(Cl)C3(Cl)C4(Cl)C(Cl)(Cl)C5(Cl)[C@]3(Cl)C1(Cl)[C@]5(Cl)C24Cl (stereo not given in full), the T/C (dose: 75.0 mg/kg/injection, schedule: Q04DX004 (sc), vehicle: Klucel (hydroxypropylcellulose) (HPC)) is reported as 60 % of control.
O=C(Nc1cccc2c(OC(=O)C(Cl)Cl)c(N=Nc3ccc(S(=O)(=O)Nc4nccs4)cc3)cc(N=Nc3ccc(S(=O)(=O)Nc4nccs4)cc3)c12)C(Cl)Cl (tested in a mixture with another compound) was tested, and the T/C [10] was 78 % of control, the T/C [11] was 94 % of control and the T/C [1] was 58 % of control. For the same compound, the T/C [12] was 56 % of control.
For CCO/C=C1\SC(=S)N(c2ccccc2C)C1=O, the T/C [3] was 80 % of control, the T/C [4] was 102 % of control and the T/C [5] was 177 % of control. For the same compound, the T/C [6] was 107 % of control.
CCCCCC1c2cc(O)ccc2OC1N1CCOCC1 (stereo not given) was tested, and the T/C (dose: 75.0 mg/kg/injection, schedule: Q04DX004 (sc), vehicle: saline with Tween-80) was 29 % of control, the T/C [7] was 34 % of control and the T/C [8] was 57 % of control. For the same compound, the T/C [9] was 15 % of control.
In the case of CCCCCCCCCCCCCCCC(=O)Nc1ccn(C2OC(CO)C(O)C2O)c(=O)n1 (stereo not given), the T/C (dose: 56.25 mg/kg/injection, schedule: Q04DX004 (sc), vehicle: water) is reported as 114 % of control.
With CC1=C2CC(C)(C)/C=C\C(=O)/C(C)=C\C3=C[C@H](C)C[C@]3(O2)C1=O the T/C (dose: 50.0 mg/kg/injection, schedule: Q01DX010 (sc), vehicle: Klucel (hydroxypropylcellulose) (HPC)) was 49 % of control.
For CC(Cc1ccc(O)cc1)NCC(O)c1ccc(O)c(O)c1 (stereo not given), the T/C [11] was 106 % of control, the T/C [1] was 91 % of control and the T/C [12] was 89 % of control. For the same compound, the T/C [2] was 80 % of control.
For Nc1n[nH]c(N)n1, the T/C (dose: 200.0 mg/kg/injection, schedule: Q01DX010 (sc), vehicle: saline) was 295 % of control, the T/C (dose: 400.0 mg/kg/injection, schedule: Q01DX010 (sc), vehicle: saline) was 157 % of control and the T/C (dose: 800.0 mg/kg/injection, schedule: Q01DX010 (sc), vehicle: saline) was 215 % of control.
For N=C(N)CCCCCCCCC(=N)N, the T/C (dose: 18.75 mg/kg/injection, schedule: Q04DX004 (sc), vehicle: saline) was 101 % of control.
For O=C1N=C(Oc2ccccc2)SC1=O, the T/C [10] was 40 % of control, the T/C [11] was 76 % of control and the T/C [1] was 59 % of control. For the same compound, the T/C [12] was 78 % of control.
F[B-](F)(F)F was tested, and the T/C (dose: 225.0 mg/kg/injection, schedule: Q04DX004 (sc), vehicle: gum acacia) was 106 % of control, the T/C (dose: 450.0 mg/kg/injection, schedule: Q04DX004 (sc), vehicle: gum acacia) was 85 % of control and the T/C (dose: 900.0 mg/kg/injection, schedule: Q04DX004 (sc), vehicle: gum acacia) was 69 % of control.
With Cc1cc(NCCCCCCNc2cc(C)nc3cc(N(C)C)ccc23)c2ccc(N(C)C)cc2n1 the T/C (dose: 37.5 mg/kg/injection, schedule: Q04DX004 (sc), vehicle: distilled water + Tween-80 + alcohol) was 112 % of control and the T/C (dose: 75.0 mg/kg/injection, schedule: Q04DX004 (sc), vehicle: distilled water + Tween-80 + alcohol) was 42 % of control.
With CCC/C=C/C=C/C(=O)OC1/C(=C/C(=O)OC)CC2CC(C(C)O)OC(=O)CC(O)CC3CC(OC(C)=O)C(C)(C)C(O)(CC4C/C(=C/C(=O)OC)CC(/C=C/C(C)(C)C1(O)O2)O4)O3 (stereo not given) the T/C (dose: 0.25 mg/kg/injection, schedule: Q04DX004 (sc), vehicle: saline + alcohol) was 95 % of control, the T/C (dose: 0.5 mg/kg/injection, schedule: Q04DX004 (sc), vehicle: saline + alcohol) was 110 % of control and the T/C (dose: 1.0 mg/kg/injection, schedule: Q04DX004 (sc), vehicle: saline + alcohol) was 33 % of control. The T/C (dose: 2.0 mg/kg/injection, schedule: Q04DX004 (sc), vehicle: saline + alcohol) was 47 % of control, the T/C (dose: 4.0 mg/kg/injection, schedule: Q04DX004 (sc), vehicle: saline + alcohol) was 53 % of control and the T/C (dose: 8.0 mg/kg/injection, schedule: Q04DX004 (sc), vehicle: saline + alcohol) was 88 % of control.
CC1(C)OC1CS(=O)c1ccccc1 (stereo not given) was tested, and the T/C [1] was 61 % of control, the T/C [12] was 117 % of control and the T/C [2] was 94 % of control.
For Cc1cc(NCCCN(C)C)c2ccc3c(ccc4c(NCCCN(C)C)cc(C)nc43)c2n1, the T/C (dose: 9.38 mg/kg/injection, schedule: Q04DX004 (sc), vehicle: saline with Tween-80) was 53 % of control.
